Reference: ChEMBL document CHEMBL6153147 (J Med Chem, 2025)

Experiments:
KG-1 = assay: cells; details: Homo sapiens
[1] = Acute toxicity in mouse assessed as body weight change at 500 mg/kg, IG qd treated for 7 days; format: organism-based; details: in vivo, po, 168 h, time 7 day
Cytochrome P450 2C9 = Cytochrome P450 2C9 (Homo sapiens, UniProt P11712); assay: Inhibition of CYP2C9 in human liver microsomes using diclofenac as substrate preincubated with compound followed by substrate addition measured after 10 mins in presence of NADPH by LC-MS/MS analysis; format: ADME, Microsome
Sequence of Cytochrome P450 2C9 (P11712 whole entry): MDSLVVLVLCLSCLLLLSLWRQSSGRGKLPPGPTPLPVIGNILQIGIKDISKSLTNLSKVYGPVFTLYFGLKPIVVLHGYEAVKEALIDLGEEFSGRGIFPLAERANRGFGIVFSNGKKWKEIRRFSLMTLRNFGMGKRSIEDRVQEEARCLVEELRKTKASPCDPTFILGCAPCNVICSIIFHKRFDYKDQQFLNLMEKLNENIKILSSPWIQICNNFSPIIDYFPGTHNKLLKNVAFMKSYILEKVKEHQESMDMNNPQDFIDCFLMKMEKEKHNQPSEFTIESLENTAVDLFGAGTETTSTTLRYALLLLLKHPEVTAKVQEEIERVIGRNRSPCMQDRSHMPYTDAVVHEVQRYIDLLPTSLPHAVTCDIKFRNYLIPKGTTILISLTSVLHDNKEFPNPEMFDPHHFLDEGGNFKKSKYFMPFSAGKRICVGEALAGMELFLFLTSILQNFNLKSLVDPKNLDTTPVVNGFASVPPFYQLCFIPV

K562 [2] = assay: Antitumor activity against human K562 cells xenografted in BALB/c mouse assessed as suppression of tumor growth administered intragastrically for 11 days treated on every 3 to 4 days; format: functional, cell-based; details: dose 10-20 mg/kg, route ig, time 11.0 day
Cytochrome P450 3A4 [3] = biological target: T1, Cytochrome P450 3A4 (Homo sapiens, UniProt P08684); assay: Inhibition of CYP3A4 in human liver microsomes using midazolam as substrate preincubated with compound followed by substrate addition measured after 5 mins in presence of NADPH by LC-MS/MS analysis; format: ADME, Microsome
T1 sequence (P08684 whole entry): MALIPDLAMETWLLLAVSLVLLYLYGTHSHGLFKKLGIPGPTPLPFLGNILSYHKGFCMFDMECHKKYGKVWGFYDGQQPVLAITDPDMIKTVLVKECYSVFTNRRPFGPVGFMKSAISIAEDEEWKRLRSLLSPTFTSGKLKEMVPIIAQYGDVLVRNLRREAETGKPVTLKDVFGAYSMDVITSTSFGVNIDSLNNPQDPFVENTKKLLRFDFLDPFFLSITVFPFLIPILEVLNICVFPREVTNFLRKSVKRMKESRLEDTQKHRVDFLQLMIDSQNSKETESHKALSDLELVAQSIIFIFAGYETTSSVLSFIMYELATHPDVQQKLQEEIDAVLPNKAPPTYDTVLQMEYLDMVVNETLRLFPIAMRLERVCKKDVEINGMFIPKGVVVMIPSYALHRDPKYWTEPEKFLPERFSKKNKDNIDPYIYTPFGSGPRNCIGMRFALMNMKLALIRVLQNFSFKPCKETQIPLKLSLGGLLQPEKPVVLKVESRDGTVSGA

[4] = biological target: Serine/threonine-protein kinase PLK2 (Homo sapiens, UniProt Q9NYY3); assay: Inhibition of human PLK2 assessed as residual activity at 10 uM by kinome selectivity profiling analysis relative to control
Sequence of Serine/threonine-protein kinase PLK2 (Q9NYY3 whole entry, looked up): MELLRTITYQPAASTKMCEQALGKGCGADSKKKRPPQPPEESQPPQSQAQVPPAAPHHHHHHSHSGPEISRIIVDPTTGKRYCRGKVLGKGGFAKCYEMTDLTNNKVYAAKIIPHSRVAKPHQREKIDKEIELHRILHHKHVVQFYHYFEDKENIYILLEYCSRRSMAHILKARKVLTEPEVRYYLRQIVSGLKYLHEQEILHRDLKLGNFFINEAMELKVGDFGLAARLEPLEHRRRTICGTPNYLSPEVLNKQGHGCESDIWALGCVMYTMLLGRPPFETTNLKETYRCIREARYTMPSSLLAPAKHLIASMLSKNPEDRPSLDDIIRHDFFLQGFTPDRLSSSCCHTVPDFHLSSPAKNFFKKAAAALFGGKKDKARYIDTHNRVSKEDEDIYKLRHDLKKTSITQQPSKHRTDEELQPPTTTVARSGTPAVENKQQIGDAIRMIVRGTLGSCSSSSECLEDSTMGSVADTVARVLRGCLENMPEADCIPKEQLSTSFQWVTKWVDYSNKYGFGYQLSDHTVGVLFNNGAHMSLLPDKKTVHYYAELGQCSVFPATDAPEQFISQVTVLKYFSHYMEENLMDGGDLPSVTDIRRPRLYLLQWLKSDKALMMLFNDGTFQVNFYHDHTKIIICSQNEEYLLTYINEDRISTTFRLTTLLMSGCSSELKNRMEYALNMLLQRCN

Cytochrome P450 2D6 = Cytochrome P450 2D6 (Homo sapiens, UniProt P10635); assay: Inhibition of CYP2D6 in human liver microsomes using dextromethorphan as substrate preincubated with compound followed by substrate addition measured after 10 mins in presence of NADPH by LC-MS/MS analysis; format: ADME, Microsome
Sequence of Cytochrome P450 2D6 (P10635 whole entry): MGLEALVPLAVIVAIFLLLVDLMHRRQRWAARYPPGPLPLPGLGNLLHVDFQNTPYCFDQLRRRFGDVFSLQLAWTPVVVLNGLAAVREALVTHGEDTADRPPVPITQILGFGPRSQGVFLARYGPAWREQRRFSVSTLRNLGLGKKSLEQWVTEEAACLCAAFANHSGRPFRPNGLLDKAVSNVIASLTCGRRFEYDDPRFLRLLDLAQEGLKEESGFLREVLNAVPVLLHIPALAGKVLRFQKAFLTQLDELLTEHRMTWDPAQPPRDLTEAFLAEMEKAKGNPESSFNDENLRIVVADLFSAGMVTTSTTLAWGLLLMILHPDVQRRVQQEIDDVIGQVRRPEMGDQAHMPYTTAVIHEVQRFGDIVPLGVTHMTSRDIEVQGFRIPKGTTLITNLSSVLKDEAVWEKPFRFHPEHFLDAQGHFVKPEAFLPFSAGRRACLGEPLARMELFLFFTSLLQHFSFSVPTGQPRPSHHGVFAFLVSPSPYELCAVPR

[5] = Acute toxicity in mouse assessed as damage in spleen at 500 mg/kg, IG qd treated for 7 days by H and E staining based analysis; format: organism-based; details: in vivo, po, 168 h, time 7 day
[6] = Volume of distribution at steady state in C57BL/6 mouse at 1 mg/kg, iv measured for 0.5 to 12 htr by LC-MS/MS analysis; format: ADME, organism-based; details: in vivo, time 0.5-12 hrs, read-out: Vdss
[7] = biological target: Glycogen synthase kinase-3 beta (Homo sapiens) (UniProt P49841); assay: Inhibition of human GSK-3beta assessed as residual activity at 10 uM by kinome selectivity profiling analysis relative to control
Sequence of Glycogen synthase kinase-3 beta (Homo sapiens) (P49841 whole entry, looked up): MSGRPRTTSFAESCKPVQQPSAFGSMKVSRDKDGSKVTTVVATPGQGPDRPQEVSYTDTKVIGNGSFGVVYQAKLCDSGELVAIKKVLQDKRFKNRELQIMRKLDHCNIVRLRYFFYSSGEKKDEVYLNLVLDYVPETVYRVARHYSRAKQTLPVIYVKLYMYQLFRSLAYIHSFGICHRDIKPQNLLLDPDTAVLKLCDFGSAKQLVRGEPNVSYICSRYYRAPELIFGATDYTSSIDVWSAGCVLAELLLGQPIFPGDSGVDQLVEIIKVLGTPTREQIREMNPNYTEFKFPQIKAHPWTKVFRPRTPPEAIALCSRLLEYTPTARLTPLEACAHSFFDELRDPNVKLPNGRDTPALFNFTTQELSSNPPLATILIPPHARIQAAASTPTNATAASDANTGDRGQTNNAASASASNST

[8] = Metabolic stability in human liver microsomes assessed as intrinsic clearance in microsome measured per mg protein preincubated for 5 mins followed by NADPH addition by LC-MS/MS analysis; format: ADME; details: read-out: CLH
Cytochrome P450 2B6 = Cytochrome P450 2B6 (Homo sapiens, UniProt P20813); assay: Inhibition of CYP2B6 in human liver microsomes using bupropion as substrate preincubated with compound followed by substrate addition measured after 10 mins in presence of NADPH by LC-MS/MS analysis; format: ADME, Microsome
Sequence of Cytochrome P450 2B6 (P20813 whole entry): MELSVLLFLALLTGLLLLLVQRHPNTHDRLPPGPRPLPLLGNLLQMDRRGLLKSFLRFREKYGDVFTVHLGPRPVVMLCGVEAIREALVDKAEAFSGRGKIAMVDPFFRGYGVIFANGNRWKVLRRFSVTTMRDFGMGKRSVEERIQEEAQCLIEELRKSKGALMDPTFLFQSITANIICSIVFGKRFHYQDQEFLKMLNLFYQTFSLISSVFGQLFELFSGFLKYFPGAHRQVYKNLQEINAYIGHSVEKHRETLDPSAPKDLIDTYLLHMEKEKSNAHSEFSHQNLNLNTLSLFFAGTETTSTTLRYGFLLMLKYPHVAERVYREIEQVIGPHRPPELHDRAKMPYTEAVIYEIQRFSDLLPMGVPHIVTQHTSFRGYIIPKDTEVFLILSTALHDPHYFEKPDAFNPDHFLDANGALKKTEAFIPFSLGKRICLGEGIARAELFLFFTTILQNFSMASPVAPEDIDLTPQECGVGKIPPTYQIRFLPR

HL-60 = assay: cells; details: Homo sapiens
[9] = Acute hematopoietic toxicity in mouse assessed as effect on white blood cells at 500 mg/kg, IG qd treated for 7 days; format: organism-based; details: in vivo, po, 168 h, time 7 day
[10] = AUC (0 to infinity) in C57BL/6 mouse at 1 mg/kg, iv measured for 0.5 to 12 htr by LC-MS/MS analysis; format: ADME, organism-based; details: in vivo, time 0.5-12 hrs
[11] = Toxicity in BALB/c mouse xenografted with human K562 cells assessed as adverse effects at 10 to 20 mg/kg, IG for 11 days treated on every 3 to 4 days; format: organism-based; details: in vivo, po, 264 h, dose 10-20 mg/kg, time 11 day
[12] = Acute toxicity in mouse assessed as damage in lung at 500 mg/kg, IG qd treated for 7 days by H and E staining based analysis; format: organism-based; details: in vivo, po, 168 h, time 7 day
K562 [13] = assay: cells; details: Homo sapiens
[14] = Half life in C57BL/6 mouse at 1 mg/kg, iv measured for 0.5 to 12 htr by LC-MS/MS analysis; format: ADME, organism-based; details: in vivo, time 0.5-12 hrs
[15] = Cmax in C57BL/6 mouse at 10 mg/kg, po measured for 0.5 to […] htr by LC-MS/MS analysis; format: ADME, organism-based; details: in vivo, time 0.5-12 hrs
[16] = Metabolic stability in dog liver microsomes assessed as intrinsic clearance in microsome measured per mg protein preincubated for 5 mins followed by NADPH addition by LC-MS/MS analysis; format: ADME, Canis lupus familiaris; details: read-out: CLH
Cytochrome P450 3A4 [17] = biological target: T1, Cytochrome P450 3A4; assay: Inhibition of CYP3A4 in human liver microsomes using testosterone as substrate preincubated with compound followed by substrate addition measured after 10 mins in presence of NADPH by LC-MS/MS analysis; format: ADME, Microsome
[18] = Metabolic stability in human liver microsomes assessed as half life preincubated for 5 mins followed by NADPH addition by LC-MS/MS analysis; format: ADME, Microsome
[19] = MRT (0 to t) in C57BL/6 mouse at 10 mg/kg, po measured for 0.5 to 12 htr by LC-MS/MS analysis; format: ADME, organism-based; details: in vivo, time 0.5-12 hrs
[20] = biological target: Calcium/calmodulin-dependent protein kinase kinase 1 (Homo sapiens) (UniProt Q8N5S9); assay: Inhibition of human CaMKK1 assessed as residual activity at 10 uM by kinome selectivity profiling analysis relative to control
Sequence of Calcium/calmodulin-dependent protein kinase kinase 1 (Homo sapiens) (Q8N5S9 whole entry, looked up): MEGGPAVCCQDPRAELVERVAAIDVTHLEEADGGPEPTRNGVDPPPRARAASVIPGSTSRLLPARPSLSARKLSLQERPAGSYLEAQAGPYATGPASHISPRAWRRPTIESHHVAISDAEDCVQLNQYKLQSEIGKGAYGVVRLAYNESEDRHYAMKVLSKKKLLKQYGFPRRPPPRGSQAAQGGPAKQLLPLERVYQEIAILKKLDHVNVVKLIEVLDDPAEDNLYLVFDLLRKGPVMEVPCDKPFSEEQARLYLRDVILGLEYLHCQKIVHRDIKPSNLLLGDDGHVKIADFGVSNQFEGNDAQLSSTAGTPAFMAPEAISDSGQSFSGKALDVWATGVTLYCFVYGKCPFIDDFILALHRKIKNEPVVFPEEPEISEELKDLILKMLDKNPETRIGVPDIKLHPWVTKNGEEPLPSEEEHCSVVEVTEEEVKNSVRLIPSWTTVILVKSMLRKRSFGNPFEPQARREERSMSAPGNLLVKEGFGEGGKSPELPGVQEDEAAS

[21] = Effect on F-actin cytoskeleton in HEK293T cells at 10 uM incubated for 24 hrs by immunofluorescence based analysis; format: toxicity, cell-based; details: human, hek-293t
[22] = Acute toxicity in mouse assessed as damage in liver at 500 mg/kg, IG qd treated for 7 days by H and E staining based analysis; format: organism-based; details: in vivo, po, 168 h, time 7 day
Homo sapiens = organism: Homo sapiens; assay: Inhibition of human HRI assessed as residual activity at 10 uM by kinome selectivity profiling analysis relative to control
[23] = Acute toxicity in mouse assessed as damage in heart at 500 mg/kg, IG qd treated for 7 days by H and E staining based analysis; format: organism-based; details: in vivo, po, 168 h, time 7 day
[24] = AUC (0 to t) in C57BL/6 mouse at 1 mg/kg, iv measured for 0.5 to […] htr by LC-MS/MS analysis; format: ADME, organism-based; details: in vivo, time 0.5-12 hrs
[25] = Clearance in C57BL/6 mouse at 1 mg/kg, iv measured for 0.5 to […] htr by LC-MS/MS analysis; format: ADME, organism-based; details: in vivo, time 0.5-12 hrs
[26] = Toxicity in BALB/c mouse xenografted with human K562 cells assessed as change in body weight at 10 to 20 mg/kg, IG for 11 days treated on every 3 to 4 days; format: organism-based; details: in vivo, po, 264 h, dose 10-20 mg/kg, time 11 day
[27] = Metabolic stability in dog liver microsomes assessed as intrinsic clearance preincubated for 5 mins followed by NADPH addition by LC-MS/MS analysis; format: ADME, Canis lupus familiaris, Microsome; details: read-out: CLH
[28] = biological target: Serine/threonine-protein kinase PLK4 (Homo sapiens) (UniProt O00444); assay: Inhibition of human PLK4 assessed as residual activity at 10 uM by kinome selectivity profiling analysis relative to control
Sequence of Serine/threonine-protein kinase PLK4 (Homo sapiens) (O00444 whole entry): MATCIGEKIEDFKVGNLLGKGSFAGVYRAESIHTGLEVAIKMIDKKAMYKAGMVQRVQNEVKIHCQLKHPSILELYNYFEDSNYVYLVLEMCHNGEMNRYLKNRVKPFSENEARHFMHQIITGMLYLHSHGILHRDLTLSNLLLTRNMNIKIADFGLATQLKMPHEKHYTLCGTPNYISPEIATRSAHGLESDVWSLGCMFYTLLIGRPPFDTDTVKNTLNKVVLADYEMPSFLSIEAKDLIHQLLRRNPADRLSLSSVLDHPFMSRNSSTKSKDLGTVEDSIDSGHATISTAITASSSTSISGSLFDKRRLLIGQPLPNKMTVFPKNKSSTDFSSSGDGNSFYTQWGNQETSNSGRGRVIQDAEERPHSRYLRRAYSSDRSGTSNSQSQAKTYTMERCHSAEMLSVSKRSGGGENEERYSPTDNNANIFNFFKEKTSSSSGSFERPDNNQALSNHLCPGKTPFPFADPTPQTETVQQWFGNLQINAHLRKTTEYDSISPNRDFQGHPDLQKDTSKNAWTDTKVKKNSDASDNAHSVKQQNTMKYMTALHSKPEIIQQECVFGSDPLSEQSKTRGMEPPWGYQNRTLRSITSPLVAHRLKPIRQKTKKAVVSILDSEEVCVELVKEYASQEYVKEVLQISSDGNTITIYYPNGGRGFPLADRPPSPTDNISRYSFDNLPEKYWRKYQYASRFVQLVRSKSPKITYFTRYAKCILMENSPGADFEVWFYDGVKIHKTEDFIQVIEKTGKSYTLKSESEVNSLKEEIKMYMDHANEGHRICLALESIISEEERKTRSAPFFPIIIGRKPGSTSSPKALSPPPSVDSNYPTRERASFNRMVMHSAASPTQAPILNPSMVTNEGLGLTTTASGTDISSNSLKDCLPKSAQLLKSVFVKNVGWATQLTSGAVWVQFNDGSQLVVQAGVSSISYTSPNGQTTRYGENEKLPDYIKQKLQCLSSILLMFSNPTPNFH

[29] = biological target: Serine/threonine-protein kinase MRCK alpha (Homo sapiens) (UniProt Q5VT25); assay: Inhibition of human MRCK-alpha assessed as residual activity at 10 uM by kinome selectivity profiling analysis relative to control
[30] = Acute hematopoietic toxicity in mouse assessed as effect on platelets at 500 mg/kg, IG qd treated for 7 days; format: organism-based; details: in vivo, po, 168 h, time 7 day
[31] = AUC (0 to infinity) in C57BL/6 mouse at 10 mg/kg, po measured for 0.5 to 12 htr by LC-MS/MS analysis; format: ADME, organism-based; details: in vivo, time 0.5-12 hrs
[32] = Stability of compound in rat hepatocytes; format: ADME, cell-based, Hepatocyte

With `CC[C@@H]1C(=O)N(C)c2cnc(Nc3cc(N4CCN(C)CC4)cc(Cl)c3OCCCO)nc2N1C1CCCC1` the IC50 (KG-1) was > 10 µM, the Activity [1] was “Non-toxic” and the IC50 (Cytochrome P450 2C9) was 9.6 µM. For the same compound, the Activity (K562 [2]) was “Dose-dependent-effect; Demonstrated Comparable Or Remarkably Improved Therapeutic Efficacy Compared To Bi 2536 At 10 Mg/Kg (I.P.)”, the IC50 (Cytochrome P450 3A4 [3]) was > 10 µM and the Activity [4] was 48%. For the same compound, the IC50 (Cytochrome P450 2D6) was > 10 µM, the Activity [5] was “Non-toxic” and the Vd [6] was 3.6 L/kg. The Activity [7] was 112%, the microsomal CLint [8] was 68.3 µL/min/mg and the IC50 (Cytochrome P450 2B6) was > 10 µM. For the same compound, the IC50 (HL-60) was 0.059 µM, the Activity [9] was “Non-toxic” and the AUC(0-inf) [10] was 183 ng·h/mL. The Activity [11] was “Non-toxic”, the Activity [12] was “Non-toxic” and the IC50 (K562 [13]) was 80 pM. For the same compound, the half-life [14] was 35.4 min, the Cmax [15] was 328 ng/mL and the microsomal CLint [16] was 190 µL/min/mg. For the same compound, the IC50 (Cytochrome P450 3A4 [17]) was > 10 µM, the half-life [18] was 30.3 min and the MRT last [19] was 120 min. For the same compound, the Activity [20] was 70%, the Activity [21] was “Non-toxic” and the Activity [22] was “Non-toxic”. The Activity (Homo sapiens) was 54%, the Activity [23] was “Non-toxic” and the AUC(0-t) [24] was 181 ng·h/mL. The clearance [25] was 91 mL/min/kg, the Activity [26] was “Non-toxic” and the CLint scaled [27] was 474 mL/min/kg. For the same compound, the Activity [28] was 104%, the Activity [29] was 129% and the Activity [30] was “Non-toxic”. The AUC(0-inf) [31] was 825 ng·h/mL and the Stability [32] was “Stable”.
